Laboratory results: US7897389B2, “Direct differentiation method for making cardiomyocytes from human embryonic stem cells” (Geron Corporation, priority 2008, dated 2011)

How the values were obtained:
[1] = system: Embryoid bodies from the H1 or H9 line
Procedure: Embryoid bodies from the H1 or H9 line were treated at differentiation day 1-4, 4-6 or 6-8 with 5-aza-deoxy-cytidine, a cytosine analog that affects DNA methylation. Cells were harvested at day 15, and analyzed for cardiac MHC by real-time RT-PCR.
Other reagents examined for an ability to induce cardiomyocyte differentiation included dimethyl sulfoxide (DMSO) and all-trans retinoic acid (RA).

[2] = system: hES-derived cardiomyocytes; assay: Chronotropic effects of cardioactive drugs on beating hES-derived cardiomyocytes; format: cell-based, human; conditions: for chronotropic effect on beating rate: FIG. 2 Panels B-E
Procedure: The function of hES-derived cardiomyocytes was tested by determining whether the cardiomyocytes respond appropriately to the chronotropic effects of cardioactive drugs.
When cells were treated with 10^−5 M diltiazem, 100% of the beating areas stopped contraction. […] Thus, the hES cell derived cells respond to cardioactive drugs in a manner appropriate for cells of the cardiomyocyte lineage.

## Nc1ncn([C@H]2C[C@H](O)[C@@H](CO)O2)c(=O)n1 [5-aza-deoxy-cytidine]
[1]; 1 to 10 μM at day 6-8
  proportion of beating areas in the culture: increased
[1]; 1 to 10 μM at day 6-8, harvested day 15, real-time RT-PCR
  expression of cardiac α-MHC: significantly increased

## CC(C)NCC(O)c1ccc(O)c(O)c1 (stereo not shown) [isoprenaline]
[2]
  chronotropic effect on beating rate: positive chronotropic effects

## COc1ccc([C@@H]2Sc3ccccc3N(CCN(C)C)C(=O)[C@@H]2OC(C)=O)cc1 [diltiazem]
[2]; FIG. 2 Panel A, concentration-dependent
  beating rate: inhibited

## CC1=C(/C=C/C(C)=C/C=C/C(C)=C/C(=O)O)C(C)(C)CCC1 [RA, all-trans retinoic acid]
[1]
  toxicity to the cells: toxic
[1]; 10^−9 to 10^−5 M, days 4-8, 8-15, or 4-15
  beating cells compared with untreated cultures: no increase in beating cells

## CNC[C@H](O)c1cccc(O)c1 [phenylephrine]
[2]
  chronotropic effect on beating rate: positive chronotropic effects

## C[S+](C)[O-] [DMSO, dimethyl sulfoxide]
[1]; 0.5% from days 0-4
  beating areas vs non-treated cultures: fewer beating areas
[1]; 0.8% or 1%
  beating cells: absent
[1]; DMSO treatment
  α-MHC expression compared with untreated cultures: significant reduction
